Data reported in US6150359A, “Naphthyridinones for inhibiting protein tyrosine kinase and cell cycle kinase mediated cellular proliferation” (Warner-Lambert Company, priority 2000, dated 2000).

Experiments:
Format in all cases: biochemical
c-Src = biological target: T1, c-Src (Homo sapiens, UniProt P12931); assay: c-Src kinase assay, 32P incorporation into polyglutamate-tyrosine; details: 5 μM ATP
T1 construct: made in house; host or cells: baculovirus infected insect cells
Method: (§1) Other Kinases. c-Src kinase is purified from baculovirus infected insect cell lysates using an antipeptide monoclonal antibody directed against the N-terminal 2-17 amino acids as described previously by Fry, et al., Anticancer Drug Design, 1994;9:331-351. Protein kinase C (PKC.) is obtained as a rat brain preparation from Promega.
c-Src. The antibody, covalently linked to 0.65-μm latex beads, is added to a suspension of insect cell lysis buffer comprised of 150 mM NaCl, 50 mM Tris pH 7.5, 1 mM DTT, 1% NP-40, 2 mM EGTA, 1 mM sodium vanadate, 1 mM PMSF, 1 μg/mL each of leupeptin, pepstatin, and aprotinin. Insect cell lysate containing the c-Src protein is incubated with these beads for 3 to 4 hours at 4° C. with rotation. At the end of the lysate incubation, the beads are rinsed three times in lysis buffer, resuspended in lysis buffer containing 10% glycerol, and frozen. These latex beads are thawed, rinsed three times in assay buffer which is comprised of 40 mM tris pH 7.5, 5 mM magnesium chloride, and suspended in the same buffer. In a Millipore 96-well plate with a 0.65 μm polyvinylidine membrane bottom are added the reaction components: 10-μL c-Src beads, 10 μL of 2.5 mg/mL polyglutamate-tyrosine substrate, 5 μM ATP containing 0.2 μCi labeled ^32 P-ATP, 5 μL DMSO containing inhibitors or as a solvent control, and buffer to make the final volume 125 μL. The reaction is started at room temperature by addition of the ATP and quenched 10 minutes later by the addition of 125 μL of 30% TCA, 0.1 M sodium pyrophosphate for 15 minutes on ice. The plate is then filtered and the wells washed with two 250-μL aliquots of 15% TCA, 0.1 M pyrophosphate. The filters are punched, counted in a liquid scintillation counter, and the data examined for inhibitory activity in comparison to a known inhibitor such as erbstatin. The method is described more fully in J. Med. Chem., 1994;37:598-609.

[1] = biological target: T2, FGFr (human FGF-1 (flg) receptor tyrosine kinase) (Homo sapiens, UniProt P11362); assay: FGFr tyrosine kinase assay, 32P incorporation into glutamate-tyrosine copolymer; details: 50 μM ATP; read-out: FGFr IC50
T2 construct: PCR primers are designed to amplify a fragment of DNA that codes for the intracellular tyrosine kinase domain; made in house; host or cells: Sf9 insect cells (baculovirus), cell lysate
T2 sequence (P11362 478-767 limits assumed): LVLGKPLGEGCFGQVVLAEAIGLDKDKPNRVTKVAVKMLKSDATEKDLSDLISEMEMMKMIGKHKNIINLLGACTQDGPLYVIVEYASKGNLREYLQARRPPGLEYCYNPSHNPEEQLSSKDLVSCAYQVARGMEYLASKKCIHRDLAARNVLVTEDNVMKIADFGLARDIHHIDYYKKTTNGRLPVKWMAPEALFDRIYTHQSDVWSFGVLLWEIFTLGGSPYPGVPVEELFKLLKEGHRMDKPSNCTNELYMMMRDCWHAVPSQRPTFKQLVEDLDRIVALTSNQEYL
Method: (§2) Platelet Derived Growth Factor Receptor (PDGFr) and Fibroblast Growth Factor Receptor (FGFr). Full length cDNAs for the mouse PDGF-β and human FGF-1 (flg) receptor tyrosine kinases were obtained from J. Escobedo and are prepared as described in J. Biol. Chem., 1991;262:1482-1487. PCR primers are designed to amplify a fragment of DNA that codes for the intracellular tyrosine kinase domain. The fragment is melded into a baculovirus vector, cotransfected with AcMNPV DNA, and the recombinant virus isolated. SF9 insect cells are infected with the virus to overexpress the protein, and the cell lysate is used for the assay.
(§3) PDGFr and FGFr. […] Briefly, to each well is added 82.5 μL of incubation buffer containing 25 mM Hepes (pH 7.0), 150 mM NaCl, 0.1% Triton X-100, 0.2 mM PMSF, 0.2 mM sodium vanadate, 10 mM manganese chloride, and 750 μg/mL of poly (4:1) glutamate-tyrosine followed by 2.5 μL of inhibitor and 5 μL of enzyme lysate (7.5 μg/μL FGFR-TK or 6.0 μg/μL PDGFR-TK) to initiate the reaction. Following a 10 minute incubation at 25° C., 10 μL of [γ^32 P]ATP (0.4 μCi plus 50 μM ATP) is added to each well, and samples are incubated for an additional 10 minutes at 25° C. The reaction is terminated by the addition of 100 μL of 30% trichloroacetic acid (TCA) containing 20 mM sodium pyrophosphate and precipitation of material onto glass fiber filter mats (Wallac). […] Nonspecific activity is defined as radioactivity retained on the filters following incubation of samples with buffer alone; (no enzyme). Specific enzymatic activity is defined as total activity (enzyme plus buffer) minus nonspecific activity.

[2] = biological target: T3, PDGFr (mouse PDGF-β receptor tyrosine kinase) (Mus musculus, UniProt P05622); assay: PDGFr tyrosine kinase assay, 32P incorporation into glutamate-tyrosine copolymer; details: 50 μM ATP
T3 construct: PCR primers are designed to amplify a fragment of DNA that codes for the intracellular tyrosine kinase domain; made in house; host or cells: Sf9 insect cells (baculovirus), cell lysate
T3 sequence (P05622 599-961 limits assumed): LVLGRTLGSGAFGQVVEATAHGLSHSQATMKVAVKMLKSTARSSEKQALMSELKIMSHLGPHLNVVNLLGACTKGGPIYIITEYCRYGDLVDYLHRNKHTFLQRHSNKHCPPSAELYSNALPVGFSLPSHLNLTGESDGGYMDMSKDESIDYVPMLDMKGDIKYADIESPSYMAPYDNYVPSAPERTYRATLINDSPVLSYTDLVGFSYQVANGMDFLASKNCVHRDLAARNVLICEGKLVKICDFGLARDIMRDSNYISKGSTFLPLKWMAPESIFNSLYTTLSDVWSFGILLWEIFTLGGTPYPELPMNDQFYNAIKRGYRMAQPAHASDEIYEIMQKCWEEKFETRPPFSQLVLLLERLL
Method: as §2, §3

Protein kinase C (PKC) = Protein kinase C (PKC) assay; details: rat brain preparation
Method: as §1
Other Kinases. An assay using the intracellular kinase domains of insulin receptor (INSr) is performed as described for the EGF receptor except that 10 mM manganese chloride is included in the reaction. The PKC assay is performed as previously described by Martiny-Baron, et al., J. Biol. Chem., 1993;268:9194-9197.

[3] = biological target: T4, EGFr (Human EGF receptor tyrosine kinase) (Homo sapiens, UniProt P00533); assay: EGFr tyrosine kinase assay; details: 10 μM ATP
T4 construct: Human EGF receptor tyrosine kinase is isolated from A431 human epidermoid carcinoma cells; endogenous in cells; host or cells: A431 human epidermoid carcinoma cells (detergent lysate, Q Sepharose fractions)
T4 sequence (P00533 25-1210): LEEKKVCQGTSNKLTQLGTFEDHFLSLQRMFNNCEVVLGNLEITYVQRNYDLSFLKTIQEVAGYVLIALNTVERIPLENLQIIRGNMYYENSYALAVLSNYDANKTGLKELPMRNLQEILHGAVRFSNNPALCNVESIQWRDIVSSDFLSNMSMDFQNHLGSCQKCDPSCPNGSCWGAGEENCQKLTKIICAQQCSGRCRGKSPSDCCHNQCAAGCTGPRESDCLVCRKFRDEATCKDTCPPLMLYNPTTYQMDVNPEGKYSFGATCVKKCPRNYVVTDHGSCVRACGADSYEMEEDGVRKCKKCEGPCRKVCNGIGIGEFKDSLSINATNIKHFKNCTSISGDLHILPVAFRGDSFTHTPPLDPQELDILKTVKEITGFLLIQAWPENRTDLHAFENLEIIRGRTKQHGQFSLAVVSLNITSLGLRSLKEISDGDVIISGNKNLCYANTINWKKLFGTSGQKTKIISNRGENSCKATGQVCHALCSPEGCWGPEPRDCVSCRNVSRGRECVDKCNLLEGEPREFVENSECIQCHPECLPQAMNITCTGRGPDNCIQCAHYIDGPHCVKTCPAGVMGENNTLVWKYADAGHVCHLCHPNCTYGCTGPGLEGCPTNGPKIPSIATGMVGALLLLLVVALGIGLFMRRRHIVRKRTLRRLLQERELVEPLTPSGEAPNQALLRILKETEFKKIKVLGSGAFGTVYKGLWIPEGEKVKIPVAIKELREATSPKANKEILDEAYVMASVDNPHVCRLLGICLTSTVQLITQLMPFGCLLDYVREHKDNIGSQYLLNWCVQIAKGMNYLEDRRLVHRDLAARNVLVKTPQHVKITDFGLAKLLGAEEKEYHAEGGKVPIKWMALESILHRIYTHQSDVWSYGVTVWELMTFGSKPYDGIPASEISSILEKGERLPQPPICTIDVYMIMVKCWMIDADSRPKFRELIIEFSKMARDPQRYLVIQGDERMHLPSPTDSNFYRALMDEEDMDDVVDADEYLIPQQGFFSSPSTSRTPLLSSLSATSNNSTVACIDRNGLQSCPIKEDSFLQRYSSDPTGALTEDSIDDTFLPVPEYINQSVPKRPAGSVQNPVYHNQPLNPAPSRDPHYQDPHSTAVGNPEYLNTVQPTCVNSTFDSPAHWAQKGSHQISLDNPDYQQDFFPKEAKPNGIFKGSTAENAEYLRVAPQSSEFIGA
Method: Epidermal Growth Factor Receptor (EGFr). Human EGF receptor tyrosine kinase is isolated from A431 human epidermoid carcinoma cells by the following method. Cells were grown in roller bottles in 50% Dulbecco's Modified Eagle medium and 50% HAM F-12 nutrient media (Gibco) containing 10% fetal calf serum. Approximately 10^9 cells are lysed in two volumes of buffer containing 20 mM 2-(4N-[2-[…]]piperazin-1-yl)ethanesulfonic acid (Hepes), pH 7.4, 5 mM ethylene glycol bis(2-aminoethyl ether) N,N,N',N'-tetraacetic acid (EGTA), 1% Triton X-100, 10% glycerol, 0.1 mM sodium orthovanadate, 5 mM sodium fluoride, 4 mM pyrophosphate, 4 mM benzamide, 1 mM dithiothreitol (DTT), 80 μg/mL aprotinin, 40 μg/mL leupeptin, and 1 mM phenylmethylsulfonyl fluoride (PMSF). After centrifugation at 25,000×g for 10 minutes, the supernatant is applied to a fast Q sepharose column (Pharmacia) and eluted with a linear gradient from 0.1 M NaCl to 0.4 M NaCl in 50 mM Hepes, 10% glycerol, pH 7.4. Enzyme active fractions are pooled, divided into aliquots, and stored at -100° C.
EGFr. Enzyme assays for IC50 determinations are performed in 96-well filter plates (Millipore MADVN6550). The total volume is 0.1 mL containing 20 mM Hepes, pH 7.4, 50 μM sodium vanadate, 40 mM magnesium chloride, 10 μM ATP containing 0.5 μCi of [^32 P]ATP, 20 μg of polyglutamic acid/tyrosine (Sigma Chemical Co., St. Louis, Mo.), 10 ng of EGF receptor tyrosine kinase and appropriate dilutions of inhibitor. All components except the ATP are added to the well, and the plate is incubated with shaking for 10 minutes at 25° C. The reaction is started by adding [^32 P]ATP, and the plate is incubated at 25° C. for 10 minutes. The reaction is terminated by addition of 0.1 mL of 20% trichloroacetic acid (TCA). The plate is kept at 4° C. for at least 15 minutes to allow the substrate to precipitate. The wells are then washed five times with 0.2 mL of 10% TCA, and ^32 P incorporation is determined with a Wallac beta plate counter.

T1 sequence (P12931 whole entry, species assumed): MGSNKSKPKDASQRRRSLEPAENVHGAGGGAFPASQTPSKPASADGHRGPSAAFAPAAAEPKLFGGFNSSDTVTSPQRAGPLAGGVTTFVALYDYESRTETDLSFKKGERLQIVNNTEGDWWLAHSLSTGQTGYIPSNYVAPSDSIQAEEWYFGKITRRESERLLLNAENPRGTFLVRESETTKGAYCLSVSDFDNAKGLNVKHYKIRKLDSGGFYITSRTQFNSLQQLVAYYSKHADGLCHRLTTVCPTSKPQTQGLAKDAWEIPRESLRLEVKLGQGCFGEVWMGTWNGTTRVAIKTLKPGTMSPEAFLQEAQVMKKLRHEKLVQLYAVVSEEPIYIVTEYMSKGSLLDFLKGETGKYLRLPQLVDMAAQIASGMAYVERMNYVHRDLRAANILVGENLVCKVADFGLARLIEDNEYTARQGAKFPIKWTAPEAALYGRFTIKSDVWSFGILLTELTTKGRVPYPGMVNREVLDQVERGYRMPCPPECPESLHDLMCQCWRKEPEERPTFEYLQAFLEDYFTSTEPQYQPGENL

Row | SMILES | IC50 (c-Src) [nM] | IC50 [1] [nM] | IC50 [2] [nM] | IC50 (Protein kinase C (PKC)) [nM] | IC50 [3] [nM]
1 | Cn1c(=O)c(-c2c(Cl)cccc2Cl)cc2cnc(N)cc21 [Example A, 7-amino-3-(2,6-dichlorophenyl)-1-methyl-1H-[1,6]naphthyridin-2-one] | 350 | 280 | 2500 | 50000 | –
2 | CCN(CC)CCNc1cc2c(cn1)cc(-c1c(Cl)cccc1Cl)c(=O)n2C [Example D, 3-(2,6-dichlorophenyl)-7-[2-(diethylamino)ethylamino]-1-methyl-1H-[1,6]naphthyridin-2-one] | 13000 | 3700 | 16000 | – | –
3 | CCN(CC)CCCNc1cc2c(cn1)cc(-c1c(Cl)cccc1Cl)c(=O)n2C [Example E, 3-(2,6-dichlorophenyl)-7-[3-(diethylamino)propylamino]-1-methyl-1H-[1,6]naphthyridin-2-one] | 300 | 220 | 4000 | – | –
4 | CCN(CC)CCCCCNc1cc2c(cn1)cc(-c1c(Cl)cccc1Cl)c(=O)n2C [Example G, 3-(2,6-dichlorophenyl)-7-[5-(diethylamino)pentylamino]-1-methyl-1H-[1,6]naphthyridin-2-one] | 20 | 70 | 690 | – | –
5 | Cn1c(=O)c(-c2c(Cl)cccc2Cl)cc2cnc(NCCCN3CCOCC3)cc21 [Example K, 3-(2,6-dichlorophenyl)-1-methyl-7-[3-(4-morpholino)propylamino]-1H-[1,6]naphthyridin-2-one] | 360 | – | 4700 | > 50000 | < 50000
6 | Cn1c(=O)c(-c2c(Cl)cccc2Cl)cc2cnc(NCCCn3ccnc3)cc21 [Example L, 3-(2,6-dichlorophenyl)-7-[3-(imidazol-1-yl)propylamino]-1-methyl-1H-[1,6]naphthyridin-2-one] | 540 | – | 1700 | – | –
7 | Cn1c(=O)c(-c2c(Cl)cccc2Cl)cc2cnc(Nc3ccccc3)cc21 [Example M, 3-(2,6-dichlorophenyl)-1-methyl-7-(phenylamino)-1H-[1,6]naphthyridin-2-one] | 790 | 1300 | 1000 | > 50000 | < 50000
8 | Cn1c(=O)c(-c2c(Cl)cccc2Cl)cc2cnc(NCCCCN3CCOCC3)cc21 [Example Q, 3-(2,6-dichlorophenyl)-1-methyl-7-[4-(4-morpholino)butylamino]-1H-[1,6]naphthyridin-2-one] | 50 | – | 3100 | – | –

Further lines, with some results ahead:

Row | IC50 (c-Src) [nM] | IC50 [1] [nM] | IC50 [2] [nM] | SMILES | IC50 (Protein kinase C (PKC)) [nM] | IC50 [3] [nM]
9 | 420 | 340 | 3600 | CNc1cc2c(cn1)cc(-c1c(Cl)cccc1Cl)c(=O)n2C [Example B, 3-(2,6-dichlorophenyl)-1-methyl-7-methylamino-1H-[1,6]naphthyridin-2-one] | – | –
10 | 40 | – | 950 | CN1CCN(CCCCNc2cc3c(cn2)cc(-c2c(Cl)cccc2Cl)c(=O)n3C)CC1 [Example I, 3-(2,6-dichlorophenyl)-1-methyl-7-[4-(4-methylpiperazin-1-yl)butylamino]-1H-[1,6]naphthyridin-2-one] | – | –
11 | 30 | – | 850 | CN1CCN(CCCCCNc2cc3c(cn2)cc(-c2c(Cl)cccc2Cl)c(=O)n3C)CC1 [Example J, 3-(2,6-dichlorophenyl)-1-methyl-7-[5-(4-methylpiperazin-1-yl)pentylamino]-1H-[1,6]naphthyridin-2-one] | – | –
12 | 550 | 3300 | 9600 | Cn1c(=O)c(-c2c(Cl)cccc2Cl)cc2cnc(Nc3ccncc3)cc21 [Example N, 3-(2,6-dichlorophenyl)-1-methyl-7-(4-pyridylamino)-1H-[1,6]naphthyridin-2-one] | – | –
13 | 1700 | 1200 | 1700 | COc1ccc(Nc2cc3c(cn2)cc(-c2c(Cl)cccc2Cl)c(=O)n3C)cc1 [Example O, 3-(2,6-dichlorophenyl)-7-[(4-methoxyphenyl)amino]-1-methyl-1H-[1,6]naphthyridin-2-one] | – | –
14 | 30 | 180 | 370 | CCN(CC)CCCOc1ccc(Nc2cc3c(cn2)cc(-c2c(Cl)cccc2Cl)c(=O)n3C)cc1 [Example R, 3-(2,6-dichlorophenyl)-7-[(4-(3-(diethylamino)propoxy)phenyl)amino]-1-methyl-1H-[1,6]naphthyridin-2-one] | – | –
15 | 30 | – | 370 | CN1CCN(CCCOc2ccc(Nc3cc4c(cn3)cc(-c3c(Cl)cccc3Cl)c(=O)n4C)cc2)CC1 [Example T, 3-(2,6-dichlorophenyl)-1-methyl-7-[(4-(3-(4-methylpiperazin-1-yl)propoxy)phenyl)amino]-1H-[1,6]naphthyridin-2-one] | – | –
16 | 20 | – | 260 | CN1CCN(c2ccc(Nc3cc4c(cn3)cc(-c3c(Cl)cccc3Cl)c(=O)n4C)cc2)CC1 [Example U, 3-(2,6-dichlorophenyl)-1-methyl-7-[(4-(4-methylpiperazin-1-yl)phenyl)amino]-1H-[1,6]naphthyridin-2-one] | – | –
